Laboratory results published in patent US20230085307A1, “PYRIDAZINONE COMPOUND AND HERBICIDE” (NISSAN CHEMICAL CORPORATION, priority 2019, published 2023).

What was measured:
southern crabgrass = experiment: Test Example 5: herbicidal effect by foliage application, plastic box (Table 20, symbol F); assay type: in vivo, southern crabgrass (Digitaria ciliaris); conditions: foliage application
Outline: (§1)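 Sow seeds spot-wise in sterilized diluvial soil; cover with ~1.5 cm soil. Grow 14 days in greenhouse, 25° C. to 30° C. Spray foliage with emulsion diluted to predetermined amount. Rate effect after 3 weeks.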

green foxtail = experiment: Test Example 5: herbicidal effect by foliage application, plastic box (Table 20, symbol G); assay type: in vivo, green foxtail (Setaria viridis); conditions: foliage application
Outline: as §1

barnyard grass [1] = experiment: Test Example 5: herbicidal effect by foliage application, plastic box (Table 20, symbol H); assay type: in vivo, barnyard grass (Echinochloa crus-galli); conditions: foliage application
Outline: as §1

wild oat = experiment: Test Example 5: herbicidal effect by foliage application, plastic box (Table 20, symbol I); assay type: in vivo, wild oat (Avena fatua); conditions: foliage application
Outline: as §1

blackgrass = experiment: Test Example 5: herbicidal effect by foliage application, plastic box (Table 20, symbol J); assay type: in vivo, blackgrass (Alopecurus myosuroides); conditions: foliage application
Outline: as §1

Italian ryegrass = experiment: Test Example 5: herbicidal effect by foliage application, plastic box (Table 20, symbol K); assay type: in vivo, Italian ryegrass (Lolium multiflorum); conditions: foliage application
Outline: as §1

windgrass = experiment: Test Example 5: herbicidal effect by foliage application, plastic box (Table 20, symbol L); assay type: in vivo, windgrass (Apera spica-venti); conditions: foliage application
Outline: as §1

velvetleaf = experiment: Test Example 5: herbicidal effect by foliage application, plastic box (Table 20, symbol M); assay type: in vivo, velvetleaf (Abutilon theophrasti); conditions: foliage application
Outline: as §1

redroot pigweed = experiment: Test Example 5: herbicidal effect by foliage application, plastic box (Table 20, symbol N); assay type: in vivo, redroot pigweed (Amaranthus retroflexus); conditions: foliage application
Outline: as §1

lambsquarters = experiment: Test Example 5: herbicidal effect by foliage application, plastic box (Table 20, symbol O); assay type: in vivo, lambsquarters (Chenopodium album); conditions: foliage application
Outline: as §1

chickweed = experiment: Test Example 5: herbicidal effect by foliage application, plastic box (Table 20, symbol P); assay type: in vivo, common chickweed (Stellaria media); conditions: foliage application
From the text: [Test Example 5] Herbicidal Effect Test by Foliage Application
Sterilized diluvial soil was placed in a plastic box having a length of 21 cm, a width of 13 cm, and a depth of 7 cm. The seeds of each of southern crabgrass, green foxtail, barnyard grass, wild oat, blackgrass, Italian ryegrass, windgrass, velvetleaf, redroot pigweed, lambsquarters, chickweed, false cleavers, persian speedwell, corn, soybean, rice, wheat, beet, and rapeseed were sowed in a spot-like manner and covered with the soil having a thickness of about 1.5 cm. Thereafter, the plants were grown in a greenhouse at 25° C. to 30° C. After 14-day growth of the plants, the emulsion agent of the compound of the present invention prepared according to Formulation Example 2 was diluted with water so as to achieve a predetermined herbicide amount, and the diluted emulsion agent was uniformly applied to a foliage part with a small-sized spray. Three weeks after the herbicide application, the effect of the herbicide on each plant was evaluated according to the criteria of Test Example 1.

persian speedwell = experiment: Test Example 5: herbicidal effect by foliage application, plastic box (Table 20, symbol R); assay type: in vivo, Persian speedwell (Veronica persica); conditions: foliage application, 320 g/ha, three weeks after application
Outline: as §1

barnyard grass [2] = experiment: Test Example 3: herbicidal effect by foliage application, Wagner pot (Table 18, symbol H); assay type: in vivo, barnyard grass (Echinochloa crus-galli); conditions: amount of applied herbicide 320 g/ha
Outline: (§2)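 Plants were sown in alluvial soil held under 0.1–0.5 cm standing water and grown 14 days in a greenhouse at 25–30 °C. An emulsifiable formulation, water-diluted to the set dose, was then sprayed onto the foliage, and effects were scored three weeks later using previously defined criteria.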

Chinese sprangletop = experiment: Test Example 3: herbicidal effect by foliage application, Wagner pot (Table 18, symbol D); assay type: in vivo, chinese sprangletop (Leptochloa chinensis); conditions: amount of applied herbicide 320 g/ha
Outline: as §2

rice flat sedge = experiment: Test Example 3: herbicidal effect by foliage application, Wagner pot (Table 18, symbol E); assay type: in vivo, rice flat sedge (Cyperus iria); conditions: amount of applied herbicide 320 g/ha
Outline: as §2

[3] = 320 g/ha, three weeks after application
[4] = AAH 320 g/ha, evaluated three weeks after application

COc1ccc(-c2sc3ccccc3c2-c2c(O)c(C)nn(C)c2=O)c(OC)n1 [1-079]
herbicidal effect grade, F: southern crabgrass (southern crabgrass; [3]): 0 (Herbicidal rate of 5% or less (almost no effect)) | herbicidal effect grade, G: green foxtail (green foxtail; [3]): 0 (Herbicidal rate of 5% or less (almost no effect)) | herbicidal effect grade, H: barnyard grass (barnyard grass [1]; [3]): 0 (Herbicidal rate of 5% or less (almost no effect)) | herbicidal effect grade, I: wild oat (wild oat; [3]): 0 (Herbicidal rate of 5% or less (almost no effect)) | herbicidal effect grade, J: blackgrass (blackgrass; [3]): 0 (Herbicidal rate of 5% or less (almost no effect)) | herbicidal effect grade, K: Italian ryegrass (Italian ryegrass; [3]): 0 (Herbicidal rate of 5% or less (almost no effect)) | herbicidal effect grade, L: windgrass (windgrass; [3]): 0 (Herbicidal rate of 5% or less (almost no effect)) | herbicidal effect grade, M: velvetleaf (velvetleaf; [3]): 0 (Herbicidal rate of 5% or less (almost no effect)) | herbicidal effect grade, N: redroot pigweed (redroot pigweed; [3]): 0 (Herbicidal rate of 5% or less (almost no effect)) | herbicidal effect grade, O: lambsquarters (lambsquarters; [3]): 0 (Herbicidal rate of 5% or less (almost no effect)) | herbicidal effect grade, P: chickweed (chickweed; [3]): 1 (Herbicidal rate of 5% or more and less than 20%) | herbicidal effect grade, R: persian speedwell (persian speedwell): 0 (Herbicidal rate of 5% or less (almost no effect))

COC(=O)COc1c(C)nn(C)c(=O)c1-c1c(-c2ccc(OC(F)F)cc2)sc2ccc(F)cc12 [2-306]
herbicidal effect on H: barnyard grass (barnyard grass [2]): 3 (Herbicidal rate of 40% or more and less than 70%) | herbicidal effect on D: Chinese sprangletop (Chinese sprangletop): 3 (Herbicidal rate of 40% or more and less than 70%) | herbicidal effect on E: rice flat sedge (rice flat sedge): 3 (Herbicidal rate of 40% or more and less than 70%) | F: southern crabgrass, herbicidal effect (criteria 0-5) (southern crabgrass; [4]): 0 (Herbicidal rate of 5% or less (almost no effect)) | G: green foxtail, herbicidal effect (criteria 0-5) (green foxtail; [4]): 0 (Herbicidal rate of 5% or less (almost no effect)) | H: barnyard grass, herbicidal effect (criteria 0-5) (barnyard grass [1]; [4]): 0 (Herbicidal rate of 5% or less (almost no effect)) | I: wild oat, herbicidal effect (criteria 0-5) (wild oat; [4]): 0 (Herbicidal rate of 5% or less (almost no effect)) | J: blackgrass, herbicidal effect (criteria 0-5) (blackgrass; [4]): 0 (Herbicidal rate of 5% or less (almost no effect)) | K: Italian ryegrass, herbicidal effect (criteria 0-5) (Italian ryegrass; [4]): 0 (Herbicidal rate of 5% or less (almost no effect)) | L: windgrass, herbicidal effect (criteria 0-5) (windgrass; [4]): 0 (Herbicidal rate of 5% or less (almost no effect)) | M: velvetleaf, herbicidal effect (criteria 0-5) (velvetleaf; [4]): 0 (Herbicidal rate of 5% or less (almost no effect)) | N: redroot pigweed, herbicidal effect (criteria 0-5) (redroot pigweed; [4]): 0 (Herbicidal rate of 5% or less (almost no effect)) | O: lambsquarters, herbicidal effect (criteria 0-5) (lambsquarters; [4]): 2 (Herbicidal rate of 20% or more and less than 40%) | P: chickweed, herbicidal effect (criteria 0-5) (chickweed; [4]): 5 (Herbicidal rate of 90% or more (almost completely withered))
